# Reference: US20250351832A1, “PHYTOCHEMICALS AS BIOPESTICIDES AND BIOSTIMULANTS” (KAY BEE BIO ORGANICS PVT. LTD., priority 2024, published 2025)
# Read-outs that look alike come from different tables or passages of the source.
# Tests used:
# Spodoptera litura [1] = conditions: Spodoptera litura 3rd instar on cabbage plants, dose 1 ml/gm/lit. spray
# Spodoptera litura [2] = conditions: Spodoptera litura on castor leaves; dose 1 ml/gm/lit.; 10 insects/treatment; 72 hrs after application
# Helicoverpa armigera [3] = conditions: Helicoverpa armigera 3rd instar on chickpea plants, dose 1 ml/gm/lit. spray
# Mealy Bug [4] = conditions: Mealy Bug on cotton leaves, dose 1 ml/gm/lit., 48 Hrs.
# Helicoverpa armigera [5] = conditions: Helicoverpa armigera on okra fruits, dose 1 ml/gm/lit., 72 Hrs.
# Aphid [6] = conditions: Dose 1 ml/gm/lit.
# Aphid [7] = conditions: Aphids on cotton plants, green house; dose 1 ml/gm/lit.; 10 insects/plant, 10 plants/treatment; 48 hrs
# Thrips [8] = conditions: thrips on cotton plants, greenhouse, dose 1 ml/gm/lit. spray
# Alternaria alternata [9] = experiment: Alternaria leaf spot/blight on inoculated tomato plants (Ex. 28); type: in vivo; conditions: tomato plants, Alternaria alternata; after 7 days; dose 1 ml/gm/lit
# Mite [10] = conditions: Dose 1 ml/gm/lit.
# Aphid [11] = experiment: whole plant or invertebrate; conditions: 48 h
# chili seedlings = experiment: Response of chili plants, greenhouse growth (Ex. 31); type: in vivo; conditions: chili seedlings, dose 1 ml/gm/lit
# Mealy Bug [12] = conditions: mealy bug on cotton plants, green house, dose 1 ml/gm/lit. spray
# Thrips [13] = conditions: Thrips on cotton leaves; dose 1 ml/gm/lit.; 10 insects/treatment; 48 hrs after application
# tomato seedlings = experiment: Response of tomato plants, greenhouse growth (Ex. 30); type: in vivo; conditions: tomato seedlings, dose 1 ml/gm/lit
# Alternaria alternata [14] = experiment: In vitro poisoned food technique against fungus (Ex. 20); type: cell-based; conditions: poisoned food technique, PDA medium, dose 1 ml/gm/lit., after seven days
# Thrips [15] = experiment: whole plant or invertebrate; conditions: in Gossypium hirsutum, 48 h
# [16] = cited from earlier work
# Spodoptera litura [17] = experiment: whole plant or invertebrate; conditions: 72 h
# Mite [18] = conditions: mite on okra plants, green house, dose 1 ml/gm/lit. spray
# [19] = 72 hrs, corrected for water control
# [20] = 10 insects/treatment, 4 replications
# [21] = 48 hrs, corrected for water control
# [22] = read-out: % Corrected Mortality at 48 Hrs.
# [23] = read-out: % Mortality at 48 Hrs.
# [24] = Table 13, descriptive, no test described
structure (smiles),measurement,setting,value
O=C(/C=C/C=C/c1ccc2c(c1)OCO2)N1CCCCC1 [Piperine],% Mortality at 72 Hrs.,Spodoptera litura [1]; 72 hrs after application,70.00%
same,% Corrected Mortality at 72 Hrs.,Spodoptera litura [1]; [19],68.42%
same,Total No. of dead insect at 72 Hrs.,Spodoptera litura [2],7.25
same,% Mortality at 72 Hrs.,Helicoverpa armigera [3]; 72 hrs after application,67.50%
same,% Corrected Mortality at 72 Hrs.,Helicoverpa armigera [3]; [19],67.50%
same,Total No. of dead insect at 48 Hrs.,Mealy Bug [4]; [20],5.25
same,% Mortality at 48 Hrs.,Mealy Bug [4],52.50%
same,% Corrected Mortality at 48 Hrs.,Mealy Bug [4]; corrected for water control,50.00%
same,Total No. of dead insect at 72 Hrs.,Helicoverpa armigera [5]; [20],7.00
same,% Mortality at 72 Hrs.,Helicoverpa armigera [5],70.00%
same,% Corrected Mortality at 72 Hrs.,Helicoverpa armigera [5]; corrected for water control,70.00%
same,Total No. of dead insect at 48 Hrs.,"Aphid [6]; 10 insects/treatment, 4 replications, cotton leaves",7.00
same,% Corrected Mortality at 48 Hrs.,Aphid [6]; 48 hrs,65.71%
same,Total No. of dead insect at 48 Hrs.,Aphid [7],70.00
same,% Mortality at 48 Hrs.,Thrips [8]; 48 hrs after application,32.50%
same,Total No. of dead insect at 48 Hrs.,Thrips [8]; 48 hrs after application,32.50
same,% Corrected Mortality at 48 Hrs.,Thrips [8]; [21],25.00%
same,% Disease reduction over Control,Alternaria alternata [9],53.72%
same,Total No. of dead insect at 48 Hrs.,"Mite [10]; 10 insects/treatment, 4 replications, okra leaves",6.25
same,% Corrected Mortality at 48 Hrs.,Mite [10]; 48 hrs,59.46%
same,% Mortality at 48 Hrs.,Mite [10]; 48 hrs,62.50%
same,mortality at 1 mL or g/L,Aphid [11]; [22],64.7%
same,mortality at 1 mL or g/L,Aphid [11]; [23],70%
same,CCI 5th Day,chili seedlings; 5th day after application,13.30
same,Plant Height (cm) 5th Day,chili seedlings; 5th day after application,6.30 cm
same,CCI % Increase over pre on 10th Day,chili seedlings; 10th day,38.67%
same,Plant Height % Increase over pre on 10th Day,chili seedlings; 10th day,54.78%
same,Root Lenght (cm) 10th Day,chili seedlings; 10th day,3.25 cm
same,Stem Girth % Increase over pre on 10th Day,chili seedlings; 10th day,39.49%
same,CCI 10th Day,chili seedlings; 10th day after application,14.2
same,Plant Height (cm) 10th Day,chili seedlings; 10th day after application,7.12 cm
same,Root Lenght % Increase over control,"chili seedlings; 10th day, vs water control",18.81%
same,% Mortality at 48 Hrs.,Mealy Bug [12]; 48 hrs after application,57.50%
same,Total No. of dead insect at 48 Hrs.,Mealy Bug [12]; 48 hrs after application,57.50
same,% Corrected Mortality at 48 Hrs.,Mealy Bug [12]; [21],52.78%
same,Total No. of dead insect at 48 Hrs.,Thrips [13],4.00
same,Plant Height 5th Day,tomato seedlings; 5th day after application,6.41 cm
same,Stem Girth 5th Day,tomato seedlings; 5th day after application,1.80 mm
same,Plant Height 10th Day,tomato seedlings; 10th day after application,7.02 cm
same,Stem Girth 10th Day,tomato seedlings; 10th day after application,2.24 mm
same,Plant Height % Increase over pre on 10th Day,tomato seedlings; 10th day,30.48%
same,Stem Girth % Increase over pre on 10th Day,tomato seedlings; 10th day,57.52%
same,CCI 5th Day,tomato seedlings; 5th day after application,13.89
same,CCI % Increase over pre on 10th Day,tomato seedlings; 10th day,20.71%
same,Root Length (cm) 10th Day,tomato seedlings; 10th day,3.93 cm
same,CCI 10th Day,tomato seedlings; 10th day after application,14.63
same,Root Length % Increase over control,"tomato seedlings; 10th day, vs water control",18.18%
same,Mean colony Diameter (mm),Alternaria alternata [14],52.00 mm
same,inhibition of growth at 1 mL or g/L,"Alternaria alternata [14]; vs untreated control, read-out: % Inhibition of growth",40.9%
same,mortality at 1 mL or g/L,Thrips [15]; [22],31.4%
same,mortality at 1 mL or g/L,Thrips [15]; [23],40%
same,Acaricidal Activity - Mode of action,[16]; [24],Cause dehydration of mites
same,Antifungal Activity - Mode of action,[16]; [24],Inhibition of the fungal
same,Phytotonic Effect,"[16]; Table 13, effect on plants, descriptive",Boost plant
same,mortality at 1 mL or g/L,Spodoptera litura [17]; read-out: % Corrected Mortality at 72 Hrs.,71%
same,mortality at 1 mL or g/L,Spodoptera litura [17]; read-out: % Mortality at 72 Hrs.,72.5%
same,% Mortality at 48 Hrs.,Mite [18]; 48 hrs after application,60.00%
same,Total No. of dead insect at 48 Hrs.,Mite [18]; 48 hrs after application,60.00
same,% Corrected Mortality at 48 Hrs.,Mite [18]; [21],57.89%
